The text below walks through data of patent US20240336608A1, “IL4I1 INHIBITORS AND METHODS OF USE” (Merck Sharp & Dohme LLC, priority 2023, published 2024).

Structures are written as SMILES.

The target of the assay is T1, recombinant IL4I1 (Homo sapiens, UniProt Q96RQ9).
T1 construct: purchased R&D Systems 5684-AO-020
T1 sequence (Q96RQ9 22-567): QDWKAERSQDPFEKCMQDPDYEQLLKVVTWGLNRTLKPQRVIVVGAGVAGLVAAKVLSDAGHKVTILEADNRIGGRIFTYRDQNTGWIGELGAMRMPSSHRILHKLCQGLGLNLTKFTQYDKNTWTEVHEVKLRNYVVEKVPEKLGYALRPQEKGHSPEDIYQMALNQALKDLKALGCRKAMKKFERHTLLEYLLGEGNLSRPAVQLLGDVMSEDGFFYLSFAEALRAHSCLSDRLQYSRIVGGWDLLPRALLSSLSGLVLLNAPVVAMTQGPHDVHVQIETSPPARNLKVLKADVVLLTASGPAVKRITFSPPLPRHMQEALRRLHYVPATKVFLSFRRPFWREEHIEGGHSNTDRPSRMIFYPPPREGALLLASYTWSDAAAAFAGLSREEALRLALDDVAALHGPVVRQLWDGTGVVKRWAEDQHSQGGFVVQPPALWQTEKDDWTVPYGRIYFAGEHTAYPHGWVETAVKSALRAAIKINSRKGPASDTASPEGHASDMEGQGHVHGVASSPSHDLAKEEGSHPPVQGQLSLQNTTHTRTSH
As to the kind of experiment: IL4I1 Enzymatic Assay (Amplex Red/HRP coupled detection of H2O2, fluorescence). In kind it is biochemical. The conditions noted are these: 1 nM recombinant IL4I1; four-hour pre-incubation with compound; 1 mM each Phe, Tyr, Trp; ten-point titration. Put shortly: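 H2O2 output was coupled to resorufin fluorescence (ex 544/em 590) via 0.05 mM Amplex Red and 1 U/mL HRP. Substrate: Phe, Tyr, Trp at 1 mM each; enzyme 1 nM, 4 h compound pre-incubation, 120 min reaction, pH 7.0 Hepes. EC50 by nonlinear four-parameter regression, 1:3 ten-point titration.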

Turning to `O=C(NCc1nnc(-c2ccccc2)s1)c1cn(Cc2cc[nH]n2)nn1` [Example 156, 1-((1H-pyrazol-3-yl)methyl)-N-((5-phenyl-1,3,4-thiadiazol-2-yl)methyl)-1H-1,2,3-triazole-4-carboxamide], the EC50 was determined as 8 nM.
Under `O=C(NCc1nnc(-c2ccccc2)s1)c1cn(CC2COC2)nn1` [Example 157, 1-(oxetan-3-ylmethyl)-N-((5-phenyl-1,3,4-thiadiazol-2-yl)methyl)-1H-1,2,3-triazole-4-carboxamide] stands 11 nM.
For `O=C(NCc1nnc(-c2ccccc2)s1)c1cn(C2(CO)COC2)nn1` [Example 158, 1-(3-(hydroxymethyl)oxetan-3-yl)-N-((5-phenyl-1,3,4-thiadiazol-2-yl)methyl)-1H-1,2,3-triazole-4-carboxamide] the value was 335 nM.
Under `O=C(NCc1nnc(-c2ccccc2)s1)c1cn(C2(CO)CC2)nn1` [Example 159, 1-(1-(hydroxymethyl)cyclopropyl)-N-((5-phenyl-1,3,4-thiadiazol-2-yl)methyl)-1H-1,2,3-triazole-4-carboxamide] stands 170 nM.
As to `N#CC1(n2cc(C(=O)NCc3nnc(-c4ccccc4)s3)nn2)CC1` [Example 160, 1-(1-cyanocyclopropyl)-N-((5-phenyl-1,3,4-thiadiazol-2-yl)methyl)-1H-1,2,3-triazole-4-carboxamide], the EC50 was 36 nM.
On to `CC1(Cn2cc(C(=O)NCc3nnc(-c4ccccc4)s3)nn2)COC1` [Example 161, 1-((3-methyloxetan-3-yl)methyl)-N-((5-phenyl-1,3,4-thiadiazol-2-yl)methyl)-1H-1,2,3-triazole-4-carboxamide], for which the EC50 was 22 nM.
For `CNC(=O)C1(n2cc(C(=O)NCc3nnc(-c4ccccc4)s3)nn2)CC1` [Example 162, 1-(1-(methylcarbamoyl)cyclopropyl)-N-((5-phenyl-1,3,4-thiadiazol-2-yl)methyl)-1H-1,2,3-triazole-4-carboxamide] the value was 120 nM; for `O=C(NCc1nnc(-c2ccccc2)s1)c1cn(C2(CO)CCC2)nn1` [Example 163, 1-(1-(hydroxymethyl)cyclobutyl)-N-((5-phenyl-1,3,4-thiadiazol-2-yl)methyl)-1H-1,2,3-triazole-4-carboxamide], 104 nM; for `O=C(NCc1nnc(-c2ccccc2)s1)c1cn(Cc2cn[nH]c2)nn1` [Example 164, 1-((1H-pyrazol-4-yl)methyl)-N-((5-phenyl-1,3,4-thiadiazol-2-yl)methyl)-1H-1,2,3-triazole-4-carboxamide], 17 nM.
For `O=C(NCc1nnc(-c2ccccc2)s1)c1cn(C[C@@H](F)CO)nn1` [Example 165, (R)-1-(2-fluoro-3-hydroxypropyl)-N-((5-phenyl-1,3,4-thiadiazol-2-yl)methyl)-1H-1,2,3-triazole-4-carboxamide] the value was 7 nM; for `C[C@@H](CO)n1cc(C(=O)NCc2nnc(-c3ccccc3)s2)nn1` [Example 166, (S)-1-(1-hydroxypropan-2-yl)-N-((5-phenyl-1,3,4-thiadiazol-2-yl)methyl)-1H-1,2,3-triazole-4-carboxamide], 9 nM; for `C[C@@H](C(F)F)n1cc(C(=O)NCc2nnc(-c3ccccc3)s2)nn1` [Example 167, (S)-1-(1,1-difluoropropan-2-yl)-N-((5-phenyl-1,3,4-thiadiazol-2-yl)methyl)-1H-1,2,3-triazole-4-carboxamide], 7 nM.
For `C[C@H](C(F)F)n1cc(C(=O)NCc2nnc(-c3ccccc3)s2)nn1` [Example 168, (R)-1-(1,1-difluoropropan-2-yl)-N-((5-phenyl-1,3,4-thiadiazol-2-yl)methyl)-1H-1,2,3-triazole-4-carboxamide] the value was 7 nM.
Take `C[C@H](O)[C@@H](C)n1cc(C(=O)NCc2nnc(-c3ccccc3)s2)nn1` [Example 169, 1-((2R,3S)-3-hydroxybutan-2-yl)-N-((5-phenyl-1,3,4-thiadiazol-2-yl)methyl)-1H-1,2,3-triazole-4-carboxamide]: the half-maximal effective concentration (EC50) was determined as 68 nM.
For `C[C@H](CCF)n1cc(C(=O)NCc2nnc(-c3ccccc3)s2)nn1` [Example 170, (R)-1-(4-fluorobutan-2-yl)-N-((5-phenyl-1,3,4-thiadiazol-2-yl)methyl)-1H-1,2,3-triazole-4-carboxamide] the value was 34 nM.
Under `O=C(NCc1nnc(-c2ccccc2)s1)c1cn(CCC(F)F)nn1` [Example 171, 1-(3,3-difluoropropyl)-N-((5-phenyl-1,3,4-thiadiazol-2-yl)methyl)-1H-1,2,3-triazole-4-carboxamide] stands 10 nM; under `O=C(NCc1nnc(-c2ccccc2)s1)c1cn(C23CC(C2)C3)nn1` [Example 172, 1-(bicyclo[1.1.1]pentan-1-yl)-N-((5-phenyl-1,3,4-thiadiazol-2-yl)methyl)-1H-1,2,3-triazole-4-carboxamide], 49 nM; under `O=C(NCc1nnc(-c2ccccc2)s1)c1cn(C23CC(F)(C2)C3)nn1` [Example 173, 1-(3-fluorobicyclo[1.1.1]pentan-1-yl)-N-((5-phenyl-1,3,4-thiadiazol-2-yl)methyl)-1H-1,2,3-triazole-4-carboxamide], 334 nM.
As for `COC1CC(n2cc(C(=O)NCc3nnc(-c4ccccc4)s3)nn2)C1` (stereo not shown) [Example 174, 1-(3-methoxycyclobutyl)-N-((5-phenyl-1,3,4-thiadiazol-2-yl)methyl)-1H-1,2,3-triazole-4-carboxamide], the EC50 was found to be 16 nM.
For `O=C(NCc1nnc(-c2ccccc2)s1)c1cn(C2CC(CO)(CO)C2)nn1` [Example 175, 1-(3,3-bis(hydroxymethyl)cyclobutyl)-N-((5-phenyl-1,3,4-thiadiazol-2-yl)methyl)-1H-1,2,3-triazole-4-carboxamide] the value was 80 nM; for `O=C(NCc1nnc(-c2ccccc2)s1)c1cn(CC(F)(F)CO)nn1` [Example 176, 1-(2,2-difluoro-3-hydroxypropyl)-N-((5-phenyl-1,3,4-thiadiazol-2-yl)methyl)-1H-1,2,3-triazole-4-carboxamide], 7 nM.
Under `O=C(NCc1nnc(-c2ccccc2)s1)c1cn(C2CCCOC2)nn1` (stereo not shown) [Example 177, N-((5-phenyl-1,3,4-thiadiazol-2-yl)methyl)-1-(tetrahydro-2H-pyran-3-yl)-1H-1,2,3-triazole-4-carboxamide] stands 114 nM.
Regarding `CC1(n2cc(C(=O)NCc3nnc(-c4ccccc4)s3)nn2)CS(=O)(=O)C1` [Example 178, 1-(3-methyl-1,1-dioxidothietan-3-yl)-N-((5-phenyl-1,3,4-thiadiazol-2-yl)methyl)-1H-1,2,3-triazole-4-carboxamide], the EC50 is 267 nM.
Consider `O=C(NCc1nnc(-c2ccccc2)s1)c1cn(C[C@H]2CCCO2)nn1` [Example 179, (R)-N-((5-phenyl-1,3,4-thiadiazol-2-yl)methyl)-1-((tetrahydrofuran-2-yl)methyl)-1H-1,2,3-triazole-4-carboxamide], for which the EC50 is 238 nM.
Under `C[C@@H](O)Cn1cc(C(=O)NCc2nnc(-c3ccccc3)s2)nn1` [Example 180, (R)-1-(2-hydroxypropyl)-N-((5-phenyl-1,3,4-thiadiazol-2-yl)methyl)-1H-1,2,3-triazole-4-carboxamide] stands 75 nM.
`O=C(NCc1nnc(-c2ccccc2)s1)c1cn(CC(O)C2CC2)nn1` (stereo not shown) [Example 181, 1-(2-cyclopropyl-2-hydroxyethyl)-N-((5-phenyl-1,3,4-thiadiazol-2-yl)methyl)-1H-1,2,3-triazole-4-carboxamide]: the half-maximal effective concentration (EC50) came to 239 nM.
Under `O=C(NCc1nnc(-c2ccccc2)s1)c1cn([C@@H]2CC(=O)N(C3CC3)C2)nn1` [Example 182, (R)-1-(1-cyclopropyl-5-oxopyrrolidin-3-yl)-N-((5-phenyl-1,3,4-thiadiazol-2-yl)methyl)-1H-1,2,3-triazole-4-carboxamide] stands 610 nM; under `CN1CC(n2cc(C(=O)NCc3nnc(-c4ccccc4)s3)nn2)CC1=O` (stereo not shown) [Example 183, 1-(1-methyl-5-oxopyrrolidin-3-yl)-N-((5-phenyl-1,3,4-thiadiazol-2-yl)methyl)-1H-1,2,3-triazole-4-carboxamide], 139 nM; under `O=C(NCc1nnc(-c2ccccc2)s1)c1cn([C@H]2CCOC[C@@H]2O)nn1` [Example 184, 1-((3R,4S)-3-hydroxytetrahydro-2H-pyran-4-yl)-N-((5-phenyl-1,3,4-thiadiazol-2-yl)methyl)-1H-1,2,3-triazole-4-carboxamide], 77 nM.
For `O=C(NCc1nnc(-c2ccccc2)s1)c1cn(CC2(CO)COC2)nn1` [Example 185, 1-((3-(hydroxymethyl)oxetan-3-yl)methyl)-N-((5-phenyl-1,3,4-thiadiazol-2-yl)methyl)-1H-1,2,3-triazole-4-carboxamide] the value was 25 nM; for `C[C@H](O)[C@H](CO)n1cc(C(=O)NCc2nnc(-c3ccccc3)s2)nn1` [Example 186, 1-((2S,3S)-1,3-dihydroxybutan-2-yl)-N-((5-phenyl-1,3,4-thiadiazol-2-yl)methyl)-1H-1,2,3-triazole-4-carboxamide], 274 nM.
